From US8507464B2, “Phosphoramidate alkylator prodrugs” (Threshold Pharmaceuticals, Inc., priority 2005, dated 2013)
Read-outs that look alike come from different tables or passages of the source.

Experiments:
NCI-H460 cells [1] = assay: Antiproliferation assay - oxygen dependence; assay type: cell-based, human
Source text: . […] The calculated IC50 values (μM) are tabulated in Table Y1 (H460 cells) or Table Y2 (HT29 cells) below.

NCI-H460 cells [2] = assay: Antiproliferation assay (Alamar Blue), anoxia vs air
in vivo = details: CD-1, mouse, 20 mg/kg
NCI-H460 cells [3] = assay: Clonogenic assay - oxygen dependence; details: Homo sapiens
[4] = system: H460 cells exposed as monolayers; assay: Clonogenic survival of monolayer cells (Example 35); details: Homo sapiens, NCI-H460, 2 h
[5] = system: H460 lung carcinoma spheroids; assay: Spheroid model, clonogenic survival; details: read-out: IC90 H460 Spheroid 10% O2
[6] = assay type: physicochemical; details: glassy carbon, Ag/AgCl reference; for Reduction Potentials, 100 mV/sec: scan rate 100 mV/sec; for Reduction Potentials, 10,000 mV/sec: scan rate 10,000 mV/sec
[7] = Homo sapiens, NCI-H460, read-out: IC50 in H460 cells, 0.6% O2
[8] = Homo sapiens, NCI-H460, 2 h, read-out: IC50 H460 Air, air, 2 h exposure
[9] = Homo sapiens, NCI-H460, 2 h, read-out: IC50 H460 Anoxia, anoxia, 2 h exposure
[10] = NCI-H460, read-out: IC90 H460 0.6% O2
[11] = NCI-H460, read-out: IC90 H460 Air
[12] = NCI-H460, read-out: IC90 H460 N2
[13] = Homo sapiens, NCI-H460, read-out: IC50 in H460 cells, Air
[14] = Homo sapiens, NCI-H460, read-out: IC50 in H460 cells, N2
[15] = read-out: IC90 H460 Monolayer N2

SMILES: C[C@H](CCl)NP(=O)(N[C@H](C)CCl)OCc1cnc([N+](=O)[O-])n1C [Compound 37]
- IC50 (NCI-H460 cells [1]; [7]): 25 µM
- IC50 (NCI-H460 cells [1]; Homo sapiens, NCI-H460; read-out: IC50 in H460 cells, Air): > 100 µM
- IC50 (NCI-H460 cells [1]; Homo sapiens, NCI-H460; read-out: IC50 in H460 cells, N2): 0.5 µM
- IC50 (NCI-H460 cells [2]; [8]): > 100 µM
- IC50 (NCI-H460 cells [2]; [9]): 0.36 µM
- AUC (in vivo; ip): 196 µg·h/mL
- Cmax (in vivo; ip): 12.6 µg/mL
- Tmax (in vivo; ip): 2 min
- half-life (in vivo; ip): 23.2 min
- AUC (in vivo; iv): 172 µg·h/mL
- Cmax (in vivo; iv): 15 µg/mL
- Tmax (in vivo; iv): 2 min
- half-life (in vivo; iv): 9 min
- IC90 (NCI-H460 cells [3]; [10]): 5 µM
- IC90 (NCI-H460 cells [3]; [11]): 90 µM
- IC90 (NCI-H460 cells [3]; [12]): 0.2 µM

SMILES: COC(=O)c1cc(C(C)OP(=O)(NCCBr)NCCBr)ccc1OCc1cnc([N+](=O)[O-])n1C (stereo not drawn) [Compound 70]
- IC50 (NCI-H460 cells [1]; [7]): 30 µM
- IC50 (NCI-H460 cells [1]; [13]): 65 µM
- IC50 (NCI-H460 cells [1]; [14]): 2 µM
- IC50 (NCI-H460 cells [2]; [8]): 65 µM
- IC50 (NCI-H460 cells [2]; [9]): 2 µM
- IC90 [4, 15]: 1.25 µM
- IC90 ([5]; Homo sapiens, NCI-H460, 2 h): 25.5 µM
- IC90 (NCI-H460 cells [3]; [10]): 8 µM
- IC90 (NCI-H460 cells [3]; [11]): 20 µM
- IC90 (NCI-H460 cells [3]; [12]): 2 µM

SMILES: CC(OP(=O)(NCCBr)NCCBr)c1ccc([N+](=O)[O-])s1 (stereo not drawn) [Compound 88]
- IC50 (NCI-H460 cells [1]; Homo sapiens, NCI-H460, read-out: IC50 in H460 cells, 0.3% O2): 0.5 µM
- IC50 (NCI-H460 cells [1]; [7]): 0.2 µM
- IC50 (NCI-H460 cells [1]; [13]): 0.5 µM
- IC50 (NCI-H460 cells [1]; [14]): 0.03 µM
- IC50 (NCI-H460 cells [2]; [8]): 0.53 µM
- IC50 (NCI-H460 cells [2]; [9]): 0.03 µM
- Reduction Potentials, 100 mV/sec [6]: −559 mV
- Reduction Potentials, 10,000 mV/sec [6]: −629 mV

SMILES: N#Cc1cc(COP(=O)(NCCBr)NCCBr)sc1[N+](=O)[O-] [Compound 97]
- IC50 (NCI-H460 cells [1]; Air; read-out: IC50 in H460 cells, Air): 0.02 µM
- IC50 (NCI-H460 cells [1]; N2; read-out: IC50 in H460 cells, N2): 0.006 µM
- IC50 (NCI-H460 cells [1]; read-out: IC50 in H460 cells, 0.6% O2): 0.01 µM
- IC50 (NCI-H460 cells [2]; read-out: IC50 H460 Air, air, 2 h exposure): 0.1 µM
- IC50 (NCI-H460 cells [2]; read-out: IC50 H460 Anoxia, anoxia, 2 h exposure): 0.01 µM
- IC90 ([5]; 2 h exposure, 10% O2): 13 µM

SMILES: Cn1c(COP2(=O)N(CCBr)CCN2CCBr)cnc1[N+](=O)[O-] [Compound 108]
- IC50 (NCI-H460 cells [1]; [7]): > 100 µM
- IC50 (NCI-H460 cells [1]; [13]): > 100 µM
- IC50 (NCI-H460 cells [1]; [14]): 1 µM
- IC50 (NCI-H460 cells [2]; [8]): > 100 µM
- IC50 (NCI-H460 cells [2]; [9]): 1.1 µM
- Reduction Potentials, 100 mV/sec [6]: −614 mV
- Reduction Potentials, 10,000 mV/sec [6]: −593 mV

SMILES: Nc1n[n+]([O-])c2ccccc2[n+]1[O-] [Tirapazamine, reference compound]
- IC90 ([4]; read-out: IC90 H460 Monolayer 0.6% O2): 27 µM
- IC90 ([4]; read-out: IC90 H460 Monolayer Air): > 100 µM
- IC90 [4, 15]: 14 µM
- IC90 ([5]; Homo sapiens, NCI-H460, 2 h): > 200 µM
